Test results: the supplement of paper PMC10307832

Assays:
Assay in all cases: relative viability (nuclei count vs DMSO), 5 days (fraction); higher = more cells survive
[1] = compound: CCOC1=CC=CC=C1N=NC2=C(NN(C2=O)C3=NC(=CS3)C4=CC=CC=C4)C [BAM7] + N=C(N)NC(=N)NCCc1ccccc1 [Phenformin] (partner 250 µM)
How it was run: (§1)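 One day after seeding in 1536-well plates, lung cancer cell lines were dosed by pin tool. Dosing was either single-drug or a fixed anchor-drug dose plus five library-drug doses (not always all listed) in √10 steps. After 5 days, nuclei were stained in one fix-and-stain step and counted on 4× images, and relative viability is the nuclei count of treated wells over that of vehicle wells, given as the median of duplicate plates.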

[2] = compound: CCn1c(-c2nonc2N)nc2c(C#CC(C)(C)O)ncc(OC[C@H]3CCCNC3)c21 + C[C@]1(O)C[C@@H](c2nc(-c3ccc4ccc(-c5ccccc5)nc4c3)c3c(N)nccn32)C1 [Linsitinib] (partner 1 µM)
How it was run: as §1

[3] = compound: CCOC1=CC=CC=C1N=NC2=C(NN(C2=O)C3=NC(=CS3)C4=CC=CC=C4)C [BAM7] + Nc1ncn([C@H]2C[C@H](O)[C@@H](CO)O2)c(=O)n1 [Decitabine] (partner 2 µM)
How it was run: as §1

[4] = compound: CCOC1=CC=CC=C1N=NC2=C(NN(C2=O)C3=NC(=CS3)C4=CC=CC=C4)C [BAM7] + Nc1nc2[nH]cc(CCc3ccc(C(=O)N[C@@H](CCC(=O)O)C(=O)O)cc3)c2c(=O)[nH]1 [Pemetrexed] (partner 0.2 µM)
How it was run: as §1

Cell Line: UMC-11
- relative viability ([1]; first compound 0.5 µM): 0.336
- relative viability ([1]; first compound 5 µM): 0.371
- relative viability ([1]; first compound 15.81 µM): 0.311
- relative viability ([1]; first compound 50 µM): 0.312
- relative viability ([2]; first compound 0.01 µM): 0.991
- relative viability ([2]; first compound 0.03162 µM): 1.05
- relative viability ([2]; first compound 0.1 µM): 0.974
- relative viability ([2]; first compound 0.3162 µM): 0.976
- relative viability ([2]; first compound 1 µM): 1.04
- relative viability ([3]; first compound 0.5 µM): 0.603
- relative viability ([3]; first compound 5 µM): 0.687
- relative viability ([3]; first compound 15.81 µM): 0.618
- relative viability ([3]; first compound 50 µM): 0.635
- relative viability ([4]; first compound 0.5 µM): 0.85
- relative viability ([4]; first compound 5 µM): 0.912
- relative viability ([4]; first compound 15.81 µM): 0.847
- relative viability ([4]; first compound 50 µM): 0.839
